Measurements: patent EP0522944A2, “Use of 3-(3-pyridinyl)-1H,3H-pyrrolo(1,2-c)thiazole-7-carboxamide for the treatment of retroviral infections” (RHONE-POULENC RORER S.A., priority 1991, dated 1993)

Experiments:
Type in all cases: cell-based
virus HIV-1 [1] = assay: Reverse transcriptase activity as indicator of viral production in chronically HIV-1 infected U1 cells stimulated with TNFa or GM-CSF + IL-6 (first series)
Source text: Les effets du (+) (pyridyl-3)-3 1H,3H-pyrrolo[1,2-c] thiazolecarboxamide-7 sur l'induction du virus HIV-1 ont été étudiés sur des lignées cellulaires chroniquement infectées.
(§1) On utilise des lignées cellulaires U1 obtenues après infection de la lignée promonocytaire, U937, par le virus HIV-1 et sélectionnée le selon la capacité à augmenter la production virale en réponse au Phorbol My- ristate Acétate (PMA), au TNF et à d'autres médiateurs [Folks et al., Science, 238, 800 (1987)]. L'activité de la reverse transcriptase est utilisée comme un indicateur de la production virale. On analyse ainsi l'effet de concentrations croissantes du produit à étudier sur des lignées cellulaires stimulées.
(§2) Les cultures cellulaires sont prélévées en phase de croissance exponantielle et remises en culture à raison d'une concentration finale de 2x105 cellules/ml, en présence de différentes concentrations du produit à étudier. 30 minutes après, l'ensemble des cultures est additionné de TNFa ou de GM-CSF (Granulocyte Macrophage Colony Stimulating Factor) plus 11-6 (Interleukine-6). Chaque essai est fait en double, excepté les contrôles qui sont faits en quadruple. Chaque jour suivant, une fraction de surnageant des cultures est prélevée, et congelée en vue de la mesure de la reverse transcriptase. Les cellules sont nourries si nécessaire, avec du milieu frais ne contenant ni produit à étudier, ni activateur.
(§3) La mesure de l'activité de la reverse transcriptase est faite par les techniques connues, en double exemplaire [Strebel et al., Nature, 328, 728 (1987)].
Le (+) (pyridyl-3)-3 1 H,3H-pyrrolo[1,2-c]thiazole carboxamide-7 est étudié aux concentrations de 100, 10, 1 et 0,1 µM.
Le TNFa est additionné à raison de 100, 10 ou 1 Unités/ml. Le GM-CSF + 11-6 est additionné à raison de 100 U/mi. Certains contrôles ne recoivent pas l'activateur. D'autres contrôles ne reçoivent pas le produit à étudier. D'autres ne reçoivent ni le produit ni l'activateur.

cellules U1 = assay: Viability of the U1 cells in presence of the product; settings: whatever the concentration used (0,1 to 100 µM)
Method: as §2

virus HIV-1 [2] = assay: Duration of action: pretreatment of U1 cells with the product before stimulation by TNF, PMA or GM-CSF + IL-6, reverse transcriptase production (second series)
Source text: as §1
Les cultures cellulaires sont prélévées en phase de croissance exponantielle et remises en culture à raison d'une concentration finale de 2x105 cellules/ml, en présence de différentes concentrations du produit à étudier. […] Chaque essai est fait en double, excepté les contrôles qui sont faits en quadruple. Chaque jour suivant, une fraction de surnageant des cultures est prélevée, et congelée en vue de la mesure de la reverse transcriptase. Les cellules sont nourries si nécessaire, avec du milieu frais ne contenant ni produit à étudier, ni activateur.
as §3
Dans une seconde série d'essais, la durée d'action du (+) (pyridyl-3)-3 1H,3H-pyrrolo[1,2-c]thiazolecarboxamide-7 a été testée.

Structure (SMILES): NC(=O)c1ccn2c1CSC2c1cccnc1 (single isomer, unassigned; (+)) [produit, (+) (pyridyl-3)-3 1H,3H-pyrrolo[1,2-c]thiazole carboxamide-7]
- inhibition at 100 µM (virus HIV-1 [1]; Human immunodeficiency virus 1, 72 h, U1 cells, 100 Unités/ml TNFa, day 3, product 10-^4M, read-out: diminution de l'activité de la reverse transcriptase): 84%
- inhibition at 10 µM (virus HIV-1 [1]; Human immunodeficiency virus 1, 72 h, U1 cells, 100 Unités/ml TNFa, day 3, product 10^-5M, read-out: diminution de l'activité de la reverse transcriptase): 50%
- diminution de la production virale (virus HIV-1 [1]; U1 cells treated with TNFa): significative et dose-dépendante
- action inhibitrice du HIV-1 dans les cellules U1 (virus HIV-1 [1]; stimulated by GM-CSF + II-6): significative
- viabilité des cellules (cellules U1): sans effet
- Production de Reverse Transcriptase Coups par minute (cpm) (virus HIV-1 [2]; Tableau I, U1 cells + product 100µM, no stimulation, contact time 0,5 h): <100 cpm
- Production de Reverse Transcriptase Coups par minute (cpm) (virus HIV-1 [2]; Tableau I, U1 cells + product 100µM, no stimulation, contact time 2 h): <100 cpm
- Production de Reverse Transcriptase Coups par minute (cpm) (virus HIV-1 [2]; Tableau I, U1 cells + product 100µM, no stimulation, contact time 7 h): <100 cpm
- Production de Reverse Transcriptase Coups par minute (cpm) (virus HIV-1 [2]; Tableau I, U1 cells + product 100µM, no stimulation, contact time 10 h): <100 cpm
- Production de Reverse Transcriptase Coups par minute (cpm) (virus HIV-1 [2]; Tableau II, U1 cells + product 100µM, no stimulation, contact time 0,5 h): env.100 cpm
- Production de Reverse Transcriptase Coups par minute (cpm) (virus HIV-1 [2]; Tableau II, U1 cells + product 100µM, no stimulation, contact time 2 h): env.100 cpm
- Production de Reverse Transcriptase Coups par minute (cpm) (virus HIV-1 [2]; Tableau II, U1 cells + product 100µM, no stimulation, contact time 7 h): env.100 cpm
- Production de Reverse Transcriptase Coups par minute (cpm) (virus HIV-1 [2]; Tableau II, U1 cells + product 100µM, no stimulation, contact time 10 h): <100 cpm
- Production de Reverse Transcriptase Coups par minute (cpm) (virus HIV-1 [2]; Tableau III, U1 cells + product 100µM, no stimulation, contact time 0,5 h): 180 cpm
- Production de Reverse Transcriptase Coups par minute (cpm) (virus HIV-1 [2]; Tableau III, U1 cells + product 100µM, no stimulation, contact time 2 h): 150 cpm
- Production de Reverse Transcriptase Coups par minute (cpm) (virus HIV-1 [2]; Tableau III, U1 cells + product 100µM, no stimulation, contact time 7 h): 180 cpm
- Production de Reverse Transcriptase Coups par minute (cpm) (virus HIV-1 [2]; Tableau III, U1 cells + product 100µM, no stimulation, contact time 10 h): 160 cpm
- Production de Reverse Transcriptase Coups par minute (cpm) (virus HIV-1 [2]; U1 cells + product 100µM + GM-CSF (100U) + IL6 (100U), contact time before stimulation 0,5 h): 200 cpm
- Production de Reverse Transcriptase Coups par minute (cpm) (virus HIV-1 [2]; U1 cells + product 100µM + GM-CSF (100U) + IL6 (100U), contact time before stimulation 2 h): 180 cpm
- Production de Reverse Transcriptase Coups par minute (cpm) (virus HIV-1 [2]; U1 cells + product 100µM + GM-CSF (100U) + IL6 (100U), contact time before stimulation 7 h): 170 cpm
- Production de Reverse Transcriptase Coups par minute (cpm) (virus HIV-1 [2]; U1 cells + product 100µM + GM-CSF (100U) + IL6 (100U), contact time before stimulation 10 h): 180 cpm
- Production de Reverse Transcriptase Coups par minute (cpm) (virus HIV-1 [2]; U1 cells + product 100µM + PMA (10^-7), contact time before stimulation 0,5 h): 4700 cpm
- Production de Reverse Transcriptase Coups par minute (cpm) (virus HIV-1 [2]; U1 cells + product 100µM + PMA (10^-7), contact time before stimulation 2 h): 1900 cpm
- Production de Reverse Transcriptase Coups par minute (cpm) (virus HIV-1 [2]; U1 cells + product 100µM + PMA (10^-7), contact time before stimulation 7 h): 1900 cpm
- Production de Reverse Transcriptase Coups par minute (cpm) (virus HIV-1 [2]; U1 cells + product 100µM + PMA (10^-7), contact time before stimulation 10 h): 900 cpm
- Production de Reverse Transcriptase Coups par minute (cpm) (virus HIV-1 [2]; U1 cells + product 100µM + TNFα(100U), contact time before stimulation 0,5 h): 300 cpm
- Production de Reverse Transcriptase Coups par minute (cpm) (virus HIV-1 [2]; U1 cells + product 100µM + TNFα(100U), contact time before stimulation 2 h): 200 cpm
- Production de Reverse Transcriptase Coups par minute (cpm) (virus HIV-1 [2]; U1 cells + product 100µM + TNFα(100U), contact time before stimulation 7 h): 180 cpm
- Production de Reverse Transcriptase Coups par minute (cpm) (virus HIV-1 [2]; U1 cells + product 100µM + TNFα(100U), contact time before stimulation 10 h): env.100 cpm
- effet inhibiteur de la réplication du HIV-1 (virus HIV-1 [2]; pretreatment 30 minutes to 24 heures before stimulation by TNF, PMA or GM-CSF + II-6): n'affecte pas l'effet inhibiteur
